Experimental data as given in PubChem BioAssay AID330 (DTP/NCI, 2004).
“And” between values parts separate entries of the source, which are not always exact repeats. Identical values can stand only once. Toxic doses and inconclusive results are not listed. The calls were made as follows: active = survival T/C of 150% or more; inactive = T/C below 125% in these data.

Test system: P388 leukemia ip, CD2F1 mice, survival T/C
Assay: NCI In Vivo Anticancer Drug Screen. Data for tumor model P388 Leukemia (intraperitoneal) in CD2F1 (CDF1) mice
Conditions: endpoint: median survival time, higher = longer survival
Summary of the method: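 Mice carrying the transplanted tumor received test compound or vehicle. Survival was recorded in each group, and the value is the treated-group measurement divided by that of the vehicle-treated control group.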

[1] = dose: 50.0 mg/kg/injection, schedule: Q01DX005 (ip), vehicle: saline with Tween-80
[2] = dose: 100.0 mg/kg/injection, schedule: Q01DX005 (ip), vehicle: saline with Tween-80
[3] = dose: 200.0 mg/kg/injection, schedule: Q01DX005 (ip), vehicle: saline with Tween-80
[4] = dose: 12.5 mg/kg/injection, schedule: Q01DX009 (ip), vehicle: saline with Tween-80
[5] = dose: 25.0 mg/kg/injection, schedule: Q01DX009 (ip), vehicle: saline with Tween-80
[6] = dose: 50.0 mg/kg/injection, schedule: Q01DX009 (ip), vehicle: saline with Tween-80
[7] = dose: 60.0 mg/kg/injection, schedule: Q01DX005 (ip), vehicle: saline
[8] = dose: 120.0 mg/kg/injection, schedule: Q01DX005 (ip), vehicle: saline
[9] = dose: 240.0 mg/kg/injection, schedule: Q01DX005 (ip), vehicle: saline
[10] = dose: 50.0 mg/kg/injection, schedule: Q01DX005 (ip), vehicle: Klucel (hydroxypropylcellulose) (HPC)
[11] = dose: 50.0 mg/kg/injection, schedule: Q01DX009 (ip), vehicle: Klucel (hydroxypropylcellulose) (HPC)
[12] = dose: 100.0 mg/kg/injection, schedule: Q01DX009 (ip), vehicle: Klucel (hydroxypropylcellulose) (HPC)
[13] = dose: 200.0 mg/kg/injection, schedule: Q01DX009 (ip), vehicle: Klucel (hydroxypropylcellulose) (HPC)
[14] = dose: 100.0 mg/kg/injection, schedule: Q01DX005 (ip), vehicle: Klucel (hydroxypropylcellulose) (HPC)
[15] = dose: 200.0 mg/kg/injection, schedule: Q01DX005 (ip), vehicle: Klucel (hydroxypropylcellulose) (HPC)
[16] = dose: 100.0 mg/kg/injection, schedule: Q04DX002 (ip), vehicle: saline with Tween-80
[17] = dose: 200.0 mg/kg/injection, schedule: Q04DX002 (ip), vehicle: saline with Tween-80
[18] = dose: 400.0 mg/kg/injection, schedule: Q04DX002 (ip), vehicle: saline with Tween-80

Measured: T/C

C[N+](C)(C)C.[CH-]1CCCCC1.[CH-]1CCCCC1.[CH-]1CCCCC1.[Cl-].[Cl-].[Sn+4]
inactive: dose: 3.12 mg/kg/injection, schedule: Q01DX005 (ip), vehicle: saline with Tween-80 108 % of control | dose: 6.25 mg/kg/injection, schedule: Q01DX005 (ip), vehicle: saline with Tween-80 101 % of control

CCCNNC(=O)c1ccncc1
inactive: [1] 100 % of control | [2] 96 % of control | [3] 105 % of control

COc1ccccc1N/N=c1\c2nc3ccccc3nc1n(-c1ccccc1C)c(=S)n2-c1ccc(Cl)cc1
inactive: [1] 88 % of control | [2] 94 % of control | [3] 103 % of control

C=CCn1cnc2c(=S)nc[nH]c21
inactive: [4] 104 % of control | [5] 104 % of control | [6] 109 % of control | dose: 100.0 mg/kg/injection, schedule: Q04DX003 (ip), vehicle: saline with Tween-80 109 % of control | dose: 200.0 mg/kg/injection, schedule: Q04DX003 (ip), vehicle: saline with Tween-80 100 % of control

COC(=O)/C=C1/Nc2c(n(C)c(=O)n(C)c2=O)NC1=O
inactive: dose: 100.0 mg/kg/injection, schedule: Q04DX003 (ip), vehicle: saline 107 % of control | dose: 200.0 mg/kg/injection, schedule: Q04DX003 (ip), vehicle: saline 94 % of control | dose: 400.0 mg/kg/injection, schedule: Q04DX003 (ip), vehicle: saline 99 % of control

CNc1cc[nH]c(=O)c1NC(C)=O
inactive: [7] 100 % of control | [8] 101 % of control | [9] 106 % of control

CC(=O)CC(=O)OC(C)(C)C#CC(C)(C)OC(=O)CC(C)=O
inactive: dose: 50.0 mg/kg/injection, schedule: Q01DX009 (ip), vehicle: saline 102 % of control | dose: 100.0 mg/kg/injection, schedule: Q01DX009 (ip), vehicle: saline 103 % of control | dose: 200.0 mg/kg/injection, schedule: Q01DX009 (ip), vehicle: saline 100 % of control

N#CC1C2C1C1C=CC2n2c(=O)n(-c3ccccc3)c(=O)n21 (centres undefined)
inactive: dose: 6.25 mg/kg/injection, schedule: Q01DX005 (ip), vehicle: Klucel (hydroxypropylcellulose) (HPC) 99 % of control | dose: 12.5 mg/kg/injection, schedule: Q01DX005 (ip), vehicle: Klucel (hydroxypropylcellulose) (HPC) 102 % of control | dose: 25.0 mg/kg/injection, schedule: Q01DX005 (ip), vehicle: Klucel (hydroxypropylcellulose) (HPC) 108 % of control and 98 % of control | [10] 99 % of control and 111 % of control

CCCCCCCCCOCC(O)CCl (centres undefined)
inactive: [11] 97 % of control | [12] 98 % of control | [13] 93 % of control

O=C1S/C(=C2\C(=O)N(CN3CCOCC3)c3ccc(Br)cc32)C(=O)N1CN1CCOCC1
inactive: [10] 100 % of control | [14] 106 % of control | [15] 102 % of control

CC1CN1P(=S)(N1CC1C)N1CC1C (centres undefined)
inactive: dose: 2.5 mg/kg/injection, schedule: Q01DX010 (ip), vehicle: saline 110 % of control | dose: 5.0 mg/kg/injection, schedule: Q01DX010 (ip), vehicle: saline 95 % of control | dose: 10.0 mg/kg/injection, schedule: Q01DX010 (ip), vehicle: saline 115 % of control

O=C(NN1CCCCC1)NN1CCCCC1
inactive: [1] 101 % of control | [2] 100 % of control | [3] 100 % of control

O=C(Nc1ccc(C2=NCCN2)cc1)c1cc2ccc(C3=NCCN3)cc2[nH]1
inactive: dose: 12.5 mg/kg/injection, schedule: Q04DX003 (ip), vehicle: saline 101 % of control | dose: 25.0 mg/kg/injection, schedule: Q04DX003 (ip), vehicle: saline 112 % of control | dose: 50.0 mg/kg/injection, schedule: Q04DX003 (ip), vehicle: saline 118 % of control

O=C(NCc1ccc(S(=O)(=O)F)cc1)Oc1ccc([N+](=O)[O-])cc1
inactive: dose: 7.5 mg/kg/injection, schedule: Q01DX005 (ip), vehicle: saline with Tween-80 102 % of control | dose: 15.0 mg/kg/injection, schedule: Q01DX005 (ip), vehicle: saline with Tween-80 96 % of control | dose: 30.0 mg/kg/injection, schedule: Q01DX005 (ip), vehicle: saline with Tween-80 99 % of control | dose: 60.0 mg/kg/injection, schedule: Q01DX005 (ip), vehicle: saline with Tween-80 99 % of control and 112 % of control

O=C1CCC([N+](=O)[O-])([N+](=O)[O-])CO1
inactive: dose: 100.0 mg/kg/injection, schedule: Q01DX001 (ip), vehicle: saline with Tween-80 111 % of control | dose: 200.0 mg/kg/injection, schedule: Q01DX001 (ip), vehicle: saline with Tween-80 106 % of control | dose: 400.0 mg/kg/injection, schedule: Q01DX001 (ip), vehicle: saline with Tween-80 113 % of control

CCCCCCC(O)CCCCCC
inactive: dose: 100.0 mg/kg/injection, schedule: Q04DX003 (ip), vehicle: other 104 % of control | dose: 200.0 mg/kg/injection, schedule: Q04DX003 (ip), vehicle: other 109 % of control | dose: 400.0 mg/kg/injection, schedule: Q04DX003 (ip), vehicle: other 100 % of control

FC(F)(F)COP(OCC(F)(F)F)c1ccccc1
inactive: [1] 106 % of control | [2] 111 % of control | [3] 111 % of control

CCOC(=O)NC(=S)C1=C(N2CCOCC2)CCC1
inactive: [11] 106 % of control | [12] 122 % of control | [13] 97 % of control

Oc1c(Cl)cc(Cl)cc1C=Nc1ccc2c(ccc3c4ccccc4ccc23)c1
inactive: dose: 25.0 mg/kg/injection, schedule: Q04DX003 (ip), vehicle: Klucel (hydroxypropylcellulose) (HPC) 105 % of control | dose: 50.0 mg/kg/injection, schedule: Q04DX003 (ip), vehicle: Klucel (hydroxypropylcellulose) (HPC) 105 % of control | dose: 100.0 mg/kg/injection, schedule: Q04DX003 (ip), vehicle: Klucel (hydroxypropylcellulose) (HPC) 109 % of control and 86 % of control

Cn1c2cc3c(c(O)c2c(=O)c2cccnc21)C=CC(C)(C)O3
inactive: [10] 104 % of control | [14] 91 % of control | [15] 93 % of control

O=C1c2ccccc2-c2nc3ccccc3n21
inactive: dose: 100.0 mg/kg/injection, schedule: Q01DX001 (ip), vehicle: saline 100 % of control | [16] 100 % of control | dose: 200.0 mg/kg/injection, schedule: Q01DX001 (ip), vehicle: saline 108 % of control | [17] 106 % of control | dose: 400.0 mg/kg/injection, schedule: Q01DX001 (ip), vehicle: saline 106 % of control | [18] 100 % of control

CCn1c2nc(=O)[nH]c(=O)c-2[n+]([O-])c2ccccc21
inactive: dose: 12.5 mg/kg/injection, schedule: Q01DX001 (ip), vehicle: saline with Tween-80 96 % of control | dose: 25.0 mg/kg/injection, schedule: Q01DX001 (ip), vehicle: saline with Tween-80 96 % of control | dose: 50.0 mg/kg/injection, schedule: Q01DX001 (ip), vehicle: saline with Tween-80 96 % of control

O=c1[nH]c(-c2cccc(-c3nnc(-c4ccccc4Cl)c(=O)[nH]3)c2)nnc1-c1ccccc1Cl
inactive: dose: 100.0 mg/kg/injection, schedule: Q04DX002 (ip), vehicle: Klucel (hydroxypropylcellulose) (HPC) 100 % of control | dose: 200.0 mg/kg/injection, schedule: Q04DX002 (ip), vehicle: Klucel (hydroxypropylcellulose) (HPC) 100 % of control | dose: 400.0 mg/kg/injection, schedule: Q04DX002 (ip), vehicle: Klucel (hydroxypropylcellulose) (HPC) 96 % of control

CN1CCO[Si](C)(C)C[Si](C)(C)OCC1
inactive: [7] 103 % of control | [8] 102 % of control | [9] 105 % of control

O=C1N=C2SCCN2C(=O)C1Nc1ccc(Cl)cc1 (centres undefined)
inactive: [16] 99 % of control | [17] 100 % of control | [18] 98 % of control

CCCCCCCCCCCCCCCCCCSC1=CC(=O)c2ccccc2C1=O
inactive: dose: 3.13 mg/kg/injection, schedule: Q01DX009 (ip), vehicle: saline with Tween-80 95 % of control | dose: 6.25 mg/kg/injection, schedule: Q01DX009 (ip), vehicle: saline with Tween-80 95 % of control | [4] 90 % of control | [5] 89 % of control | [6] 97 % of control

[O-]/[N+](=C\c1c(Cl)cccc1Cl)CC1(O)CCCCC1
inactive: [6] 96 % of control | dose: 100.0 mg/kg/injection, schedule: Q01DX009 (ip), vehicle: saline with Tween-80 90 % of control | dose: 200.0 mg/kg/injection, schedule: Q01DX009 (ip), vehicle: saline with Tween-80 99 % of control
